IC50 data for 24 compounds are collected here from US9290467B2, “Cyclic amides” (Hoffmann-La Roche Inc., priority 2012, dated 2016).

Chain of Cathepsin L (P07711 114-333): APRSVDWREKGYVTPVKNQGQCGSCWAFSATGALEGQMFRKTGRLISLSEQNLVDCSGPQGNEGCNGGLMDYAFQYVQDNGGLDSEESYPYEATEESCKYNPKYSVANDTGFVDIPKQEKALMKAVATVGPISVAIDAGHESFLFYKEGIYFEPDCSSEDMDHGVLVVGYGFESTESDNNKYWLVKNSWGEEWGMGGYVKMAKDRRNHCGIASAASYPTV

In the test the target is Cathepsin L (Homo sapiens (Human), UniProt P07711). Nature of the test: Cathepsin enzyme inhibition assay (fluorogenic peptide substrate Z-Val-Val-Arg-AMC). The format is biochemical. The settings on record: enzyme 1 nM, substrate 20 μM, pH 6.5. As for the experimental part:
Enzyme activity is measured by observing the increase in fluorescence intensity caused by cleavage of a peptide substrate containing a fluorophore whose emission is quenched in the intact peptide.
Assay buffer: 100 mM potassium phosphate pH 6.5, EDTA-Na 5 mM, Triton X-100 0.001%, DDT 5 mM.
Enzymes (all at 1 nM): human and mouse Cathepsin S, Cat K, Cat B, Cat L
Substrate (20 μM): Z-Val-Val-Arg-AMC, except for Cat K which uses Z-Leu-Arg-AMC (both from Bachem).
AMC=7-Amino-4-Methyl-Coumarin.
Excitation 360 nm, Emission 465 nm.
Enzyme is added to the substance dilutions in 96-well microtitre plates and the reaction is started with substrate. […] IC50 are calculated by standard methods. The results are expressed in μM in the following table.
Broadly, the IC50 is the concentration at which inhibition is half-maximal. A high value points to weaker potency in that assay. The compound `N#CC1(NC(=O)[C@@H]2Cc3ccc(c(I)c3)OC/C=C/COc3ccccc3C(=O)N2)CC1` [Example 25, (E)-(S)-19-Iodo-5-oxo-12,17-dioxa-4-aza-tricyclo[16.2.2.0*6,11*]docosa-1(21),6,8,10,14,18(22),19-heptaene-3-carboxylic acid (1-cyano-cyclopropyl)-amide, stereoaxis R] had an IC50 of 236 nM. `N#CC1(NC(=O)[C@@H]2Cc3ccc(c(Cl)c3)OC/C=C/COc3ccccc3C(=O)N2)CC1` [Example 4, (E)-(S)-19-Chloro-5-oxo-12,17-dioxa-4-aza-tricyclo[16.2.2.0*6,11*]docosa-1(21),6(11),7,9,14,18(22),19-heptaene-3-carboxylic acid (1-cyano-cyclopropyl)-amide] showed a concentration for half-maximal inhibition (IC50) of 13.8 nM. `N#CC1(NC(=O)[C@@H]2Cc3ccc(c(Cl)c3)OC/C=C/COc3ccc(Cl)cc3C(=O)N2)CC1` [Example 10, (E)-(S)-8,19-Dichloro-5-oxo-12,17-dioxa-4-aza-tricyclo[16.2.2.0*6,11*]docosa-1(21),6,8,10,14,18(22),19-heptaene-3-carboxylic acid (1-cyano-cyclopropyl)-amide] gave an IC50 of 10.3 nM. `N#CC1(NC(=O)[C@@H]2Cc3ccc(c(I)c3)OC/C=C/COc3ccccc3C(=O)N2)CC1` [Example 24, (E)-(S)-19-Iodo-5-oxo-12,17-dioxa-4-aza-tricyclo[16.2.2.*6,11*]docosa-1(21),6,8,10,14,18(22),19-heptaene-3-carboxylic acid (1-cyano-cyclopropyl)-amide] gave an IC50 of 164 nM. In turn, `COc1ccc2c(c1)C(=O)N[C@H](C(=O)NC1(C#N)CC1)Cc1ccc(c(Cl)c1)OCCCCO2` [Example 17, (S)-19-Chloro-8-methoxy-5-oxo-12,17-dioxa-4-aza-tricyclo[16.2.2.0*6,11*]docosa-1(21),6,8,10,18(22),19-hexaene-3-carboxylic acid (1-cyano-cyclopropyl)-amide] registered a half-maximal inhibitory concentration (IC50) of 10.4 nM.

As to `CC(C)(C)OC(=O)N1CC(c2ccc3c(c2)C(=O)N[C@H](C(=O)NC2(C#N)CC2)Cc2ccc(c(Cl)c2)OC/C=C/CO3)C1` [Example 39, 3-[(E)-(S)-19-Chloro-3-(1-cyano-cyclopropylcarbamoyl)-5-oxo-12,17-dioxa-4-aza-tricyclo[16.2.2.0*6,11*]docosa-1(21),6,8,10,14,18(22),19-heptaen-8-yl]-azetidine-1-carboxylic acid tert-butyl ester], the IC50 worked out at 26.2 nM.

Regarding `N#CC1(NC(=O)[C@@H]2Cc3ccc(c(I)c3)OCCCCOc3ccccc3C(=O)N2)CC1` [Example 30, (S)-19-Iodo-5-oxo-12,17-dioxa-4-aza-tricyclo[16.2.2.0*6,11*]docosa-1(21),6(11),7,9,18(22),19-hexaene-3-carboxylic acid (1-cyano-cyclopropyl)-amide], half-maximal inhibition (IC50) required 181 nM. Consider `N#CC1(NC(=O)[C@@H]2Cc3ccc(c(I)c3)OCCCCOc3ccc(Cl)cc3C(=O)N2)CC1` [Example 31, (S)-8-Chloro-19-iodo-5-oxo-12,17-dioxa-4-aza-tricyclo[16.2.2.0*6,11*]docosa-1(21),6(11),7,9,18(22),19-hexaene-3-carboxylic acid (1-cyano-cyclopropyl)-amide], for which the IC50 amounted to 12 nM. Regarding `N#CC1(NC(=O)[C@@H]2Cc3ccc(c(Cl)c3)OC/C=C/COc3c(Cl)cc(F)cc3C(=O)N2)CC1` [Example 48, (E)-(S)-10,19-Dichloro-8-fluoro-5-oxo-12,17-dioxa-4-aza-tricyclo[16.2.2.0*6,11*]docosa-1(21),6,8,10,14,18(22),19-heptaene-3-carboxylic acid (1-cyano-cyclopropyl)-amide], half-maximal inhibition (IC50) required 139 nM. As for `N#CC1(NC(=O)[C@@H]2Cc3ccc(c(Cl)c3)OC/C=C/CNc3ccc(Br)cc3C(=O)N2)CC1` [Example 38, (E)-(S)-8-Bromo-19-chloro-5-oxo-17-oxa-4,12-diaza-tricyclo[16.2.2.0*6,11*]docosa-1(21),6,8,10,14,18(22),19-heptaene-3-carboxylic acid (1-cyano-cyclopropyl)-amide], the figure is 10 nM; as for `N#CC1(NC(=O)[C@@H]2Cc3ccc(c(Cl)c3)OCCCCOc3ccccc3C(=O)N2)CC1` [Example 7, (S)-19-Chloro-5-oxo-12,17-dioxa-4-aza-tricyclo[16.2.2.0*6,11*]docosa-1(21),6,8,10,18(22),19-hexaene-3-carboxylic acid (1-cyano-cyclopropyl)-amide], 96.2 nM. As for `CSc1ccc2c(c1)C(=O)N[C@H](C(=O)NC1(C#N)CC1)Cc1ccc(c(Cl)c1)OCCCCO2` [Example 51, (S)-19-Chloro-8-methylsulfanyl-5-oxo-12,17-dioxa-4-aza-tricyclo[16.2.2.0*6,11*]docosa-1(21),6,8,10,18(22),19-hexaene-3-carboxylic acid (1-cyano-cyclopropyl)-amide], the figure is 1.6 nM; as for `COc1ccc2c(c1)C(=O)N[C@H](C(=O)NC1(C#N)CC1)Cc1ccc(c(Cl)c1)OC/C=C/CO2` [Example 16, (E)-(S)-19-Chloro-8-methoxy-5-oxo-12,17-dioxa-4-aza-tricyclo[16.2.2.0*6,11*]docosa-1(21),6,8,10,14,18(22),19-heptaene-3-carboxylic acid (1-cyano-cyclopropyl)-amide], 11.4 nM; as for `N#CC1(NC(=O)[C@@H]2Cc3ccc(c(Cl)c3)OCCCCOc3cc(C(F)(F)F)ccc3C(=O)N2)CC1` [Example 23, (S)-19-Chloro-5-oxo-9-trifluoromethyl-12,17-dioxa-4-aza-tricyclo[16.2.2.0*6,11*]docosa-1(21),6,8,10,18(22),19-hexaene-3-carboxylic acid (1-cyano-cyclopropyl)-amide], 50 nM. For the compound `N#CC1(NC(=O)[C@@H]2Cc3ccc(c(Cl)c3)OC/C=C/COc3ccc(C(F)(F)F)cc3C(=O)N2)CC1` [Example 34, (E)-(S)-19-Chloro-5-oxo-8-trifluoromethyl-12,17-dioxa-4-aza-tricyclo[16.2.2.0*6,11*]docosa-1(21),6,8,10,14,18(22),19-heptaene-3-carboxylic acid (1-cyano-cyclopropyl)-amide], the IC50 was 9 nM. Next, `N#CC1(NC(=O)[C@@H]2Cc3ccc(c(Cl)c3)OCCCCOc3ccc(C(F)(F)F)cc3C(=O)N2)CC1` [Example 37, (S)-19-Chloro-5-oxo-8-trifluoromethyl-12,17-dioxa-4-aza-tricyclo[16.2.2.0*6,11*]docosa-1(21),6,8,10,18(22),19-hexaene-3-carboxylic acid (1-cyano-cyclopropyl)-amide]: 9 nM; `N#CC1(NC(=O)[C@@H]2Cc3ccc(c(Cl)c3)OC/C=C/CCN3CCCC3C(=O)N2)CC1` (mixture of isomers) [Example 12, (E)-(S)-18-Chloro-5-oxo-16-oxa-4,10-diaza-tricyclo[15.2.2.0*6,10*]henicosa-1(20),13,17(21),18-tetraene-3-carboxylic acid (1-cyano-cyclopropyl)-amide]: 878 nM. As to `N#CC1(NC(=O)[C@@H]2Cc3ccc(c(Cl)c3)OC/C=C/CCc3ccccc3C(=O)N2)CC1` [Example 5, (E)-(S)-19-Chloro-5-oxo-17-oxa-4-aza-tricyclo[16.2.2.0*6,11*]docosa-1(21),6,8,10,14,18(22),19-heptaene-3-carboxylic acid (1-cyano-cyclopropyl)-amide], it took 9.6 nM to reach half-maximal inhibition (IC50).

Regarding `N#Cc1ccc2c(c1)C(=O)N[C@H](C(=O)NC1(C#N)CC1)Cc1ccc(c(Cl)c1)OCCCCO2` [Example 49, (S)-19-Chloro-8-cyano-5-oxo-12,17-dioxa-4-aza-tricyclo[16.2.2.0*6,11*]docosa-1(21),6,8,10,18(22),19-hexaene-3-carboxylic acid (1-cyano-cyclopropyl)-amide], half-maximal inhibition (IC50) was put at 18.3 nM. As for `N#CC1(NC(=O)[C@@H]2Cc3ccc(c(I)c3)OC/C=C/COc3ccccc3C(=O)N2)CC1` [Example 26, (E)-(S)-19-Iodo-5-oxo-12,17-dioxa-4-aza-tricyclo[16.2.2.0*6,11*]docosa-1(21),6,8,10,14,18(22),19-heptaene-3-carboxylic acid (1-cyano-cyclopropyl)-amide, stereoaxis S], the figure is 139 nM; as for `N#CC1(NC(=O)[C@@H]2Cc3ccc(c(Cl)c3)OC/C=C/CCN3C[C@@H](F)CC3C(=O)N2)CC1` (mixture of isomers) [Example 13, (E)-(3S,8S)-18-Chloro-8-fluoro-5-oxo-16-oxa-4,10-diaza-tricyclo[15.2.2.0*6,10*]henicosa-1(20),13,17(21),18-tetraene-3-carboxylic acid (1-cyano-cyclopropyl)-amide], 948 nM.

Take `N#CC1(NC(=O)[C@@H]2Cc3ccc(c(Cl)c3)OCCCCOc3ccc(F)cc3C(=O)N2)CC1` [Example 35, (S)-19-Chloro-8-fluoro-5-oxo-12,17-dioxa-4-aza-tricyclo[16.2.2.0*6,11*]docosa-1(21),6,8,10,18(22),19-hexaene-3-carboxylic acid (1-cyano-cyclopropyl)-amide]: it took 23 nM to reach half-maximal inhibition (IC50). As for `N#CC1(NC(=O)[C@@H]2Cc3ccc(c(Cl)c3)OC/C=C/COc3ccc(Br)cc3C(=O)N2)CC1` [Example 8, (E)-(S)-8-Bromo-19-chloro-5-oxo-12,17-dioxa-4-aza-tricyclo[16.2.2.0*6,11*]docosa-1(21),6,8,10,14,18(22),19-heptaene-3-carboxylic acid (1-cyano-cyclopropyl)-amide], the figure is 24.8 nM; as for `N#CC1(NC(=O)[C@@H]2Cc3ccc(c(Cl)c3)OCCCCOc3ccc(C4CNC4)cc3C(=O)N2)CC1` [Example 43, (S)-8-Azetidin-3-yl-19-chloro-5-oxo-12,17-dioxa-4-aza-tricyclo[16.2.2.0*6,11*]docosa-1(21),6,8,10,18(22),19-hexaene-3-carboxylic acid (1-cyano-cyclopropyl)-amide], 3.1 nM.
